Source: patent publication US20220039907A1, “Inhibiting Post-Biopsy Inflammation and Metastasis” (The Board of Regents of the University of Oklahoma, priority 2020, published 2022)

Experiments:
[1] = test system: VCAM1 expression in End.3; assay: PGE2-induced VCAM1 expression in End.3 with selective EP antagonists; assay type: cell-based, murine; conditions: End.3 cells, PGE2 stimulated
Text: (§1) Inflamed vessels serve as a gateway for MSCs to enter tissue parenchyma. VCAM1 engagement to integrin α4β1 (very late antigen 4; VLA4) mediates shear resistant adhesion of MSCs to the vessel wall that leads to their trans-endothelial migration. […] Similarly, VCAM1 vascular expression was elevated in PGE2 treated mice compared to untreated ones (FIG. 10(B)). Accordingly, shear resistant adhesion of human MSCs was 2-fold higher to PGE2 treated HMVECs than to untreated ones; however, VCAM1 neutralizing antibody abrogated PGE2-induced shear resistant adhesion of MSCs (FIG. 10(C)). […] The white circle in the left panel of FIG. 10(D) indicates infiltrating GFP+ MSCs, and the inset in the upper left corner is a close-up image of the corresponding location. Since VLA4 is the ligand for VCAM1, and conformational change of VLA4 is prerequisite for binding to VCAM1, ligand binding assay using FITC-LDV peptide (which selectively binds to an active form of VLA4) was performed.
PGE2 exerts its action through the binding to 4 types of prostaglandin E receptor (EP1, 2, 3, and 4), which ubiquitously express in various cell types. Human endothelial cells express all 4 types of EP receptors. […] Therefore, without wishing to be bound by theory, an explanation of biopsy-induced metastasis is that systemic availability of PGE2 leads to an elevation of VCAM1 expression in the pulmonary vessels through the EP4 receptor, resulting in increased MSCs tissue infiltration that initiates a provisional PMN in the perivascular space of the lungs (see overview model in FIG. 8).

[2] = test system: bone marrow-derived primary Mϕ; assay: PGE2-mediated arginase expression in bone marrow-derived primary Mϕ with EP inhibitors; assay type: cell-based; conditions: Mϕ incubated with PGE2 and selective EP inhibitor
Experimental: (§2) To further identify the biological consequences of abundant PGE2, the bone marrow-derived primary Mϕ was incubated with 10 μM PGE2. […] PGE2 exerts its action through 4 integral membranous E prostanoid receptors (EP1, EP2, EP3, and EP4). The Mϕ was incubated with PGE2 and selective pharmacologic inhibitors against respective prostaglandin E2 receptor (EP2).

Py230mCherry tumor = assay: Biopsy-induced lung metastasis in Py230mCherry tumor bearing mice, oral COX2/EP2 inhibitors; assay type: in vivo; conditions: daily following biopsy, n=15 per group
primary mouse MSCs = assay: Biopsy-WF induced PGE2 release from primary mouse MSCs; assay type: cell-based; conditions: primary mouse MSCs treated with biopsy-WF
4T1-Luc tumors = assay: Organ metastasis-free survival of 4T1-Luc tumor mice with or without biopsy, oral ibuprofen; assay type: in vivo
Experimental: To experimentally explore the hypothesis that inhibition of PGE2 biosynthesis by NSAIDs diminishes biopsy-induced metastasis, 4T1-Luc tumors were biopsied or left unbiopsied (n=10 per group) once tumor size reached 100 mm^3. One day later, daily oral ibuprofen (non-selective COX inhibitor) or saline was started (50 mg/kg) for 9 days, until the day before mastectomy. Mice were then monitored for metastasis over the next 3 months. […] In contrast, cellularity and COX2 expression in the biopsy wound were far less in mice that were treated with ibuprofen (FIG. 12(B)).

[3] = test system: PGE2 level in biopsied mouse tumors; assay: PGE2 level in biopsied mouse tumors after oral ibuprofen; assay type: in vivo; conditions: oral administration; to a level equal to the unbiopsied tumor
py230 BC cells = assay: Experimental metastasis model: intravenous PGE2 priming followed by py230 BC cell injection; assay type: in vivo; conditions: intravenous PGE2 at level equal to post-biopsy blood, versus untreated mice
Text: Wounding triggers a repair cascade by forming a fibrin matrix containing a series of chemo-attractants (e.g., TGF-β, bFGF, PDGF, TNFα, and EGF) that recruit MSCs from bone marrow to the injured site. MSCs produce innumerable growth factors, cyto-chemokines, and metabolites that promote angiogenesis, immunomodulation, and ECM remodeling in order to repair the damaged tissue. […] MSC2 is characterized by a high level of PGE2 release, a potent vasodilater. […] Given the high interstitial pressure coupled with insufficient lymphatic drainage due to superficial lymphatic vessels in solid tumors, soluble factors seep into the circulation from the tumor. Accordingly, PGE2 levels in the blood were 3 times higher in the biopsied mice compared to that in mice bearing unbiopsied tumors or mice without tumor burden (FIG. 6(C)). PGE2 is enzymatically converted from arachidonic acid by the rate-limiting enzyme Cyclooxygenase (COX). COX2 expression is induced by inflammatory stimuli, whereas COX1 is constitutive. […] However, the biologic mechanism by which circulating PGE2 promotes metastasis has heretofore remained unknown.
PGE2-induced hyper-permeation sites indicated by leakage of 40 kDa FITC-dextran (green) coincided with accumulation of SSEA4^+ MSCs (red), a key component of the PMN^51 (FIG. 9(C)).

lung = assay: Adoptive transfer of GFP+ MSCs into PGE2 pre-treated mice; assay type: in vivo
Text: as §1

[4] = test system: VCAM1 vascular expression; assay: VCAM1 vascular expression in PGE2 treated mice; assay type: in vivo; conditions: PGE2 treated versus untreated mice
Text: as §1

[5] = test system: human microvessel endothelial cells (HMVECs); assay: PGE2 induction of VCAM1 mRNA in HMVECs; assay type: cell-based; conditions: PGE2 level equivalent to post-biopsy blood
Text: as §1

[6] = test system: bone marrow-derived primary Mϕ; assay: Quantitative PCR of M2/M1 marker mRNAs in bone marrow-derived primary Mϕ incubated with PGE2; assay type: cell-based; conditions: 10 μM PGE2
Experimental: as §2

[7] = test system: murine endothelial cell line (End.3); assay: PGE2 induction of VCAM1 mRNA in End.3; assay type: cell-based; conditions: End.3, PGE2 level equivalent to post-biopsy blood
Text: as §1

HMVECs = assay: Shear resistant adhesion of human MSCs to HMVECs; assay type: cell-based; conditions: PGE2 treated HMVECs versus untreated
Text: as §1

pulmonary vessels = assay: Pulmonary vessel permeability (Evans Blue leakage) after intravenous PGE2; assay type: in vivo, mice; conditions: intravenous injection, versus saline

Question: For `CCCCc1nn(-c2ccccc2C(F)(F)F)c(=O)n1Cc1ccc(-c2ccccc2S(=O)(=O)NC(=O)c2sccc2C)cc1` [L-161982], which “PGE2-induced VCAM1 expression” value [1] is on record?
Answer: blocked

Question: And the PGE2-mediated arginase expression [2]?
Answer: no inhibitory effect

Question: With `COc1ccc(Br)cc1S(=O)(=O)NC(=O)/C=C/c1ccccc1Cc1ccc2ccccc2c1` [L-798106] as the molecule, how does the PGE2-mediated arginase expression [2] read?
Answer: no inhibitory effect

Question: For `Cc1cc(Cl)ccc1S(=O)(=O)NC[C@H]1C2CCC(CC2)[C@@H]1/C=C\CCCC(=O)O` [0N08711], which “PGE2-induced VCAM1 expression” value [1] is on record?
Answer: no effect

Question: And the PGE2-mediated arginase expression [2]?
Answer: no inhibitory effect

Question: For `COc1ccc2cc(OCC3(C(=O)O)CN(C(=O)c4ccc(F)cc4)C3)ccc2c1` [PF-04418948], which biopsy-induced lung metastasis (Py230mCherry tumor) is on record?
Answer: significantly reduced

Question: What about the “PGE2-induced VCAM1 expression” value [1] of the same molecule?
Answer: no effect

Question: What about the PGE2-mediated arginase expression [2] of the same molecule?
Answer: abrogated

Question: `COc1ccc2c(c1)c(CC(=O)O)c(C)n2C(=O)c1ccc(Cl)cc1` [indomethacin] was tested. Which “biopsy-WF induced PGE2 release” value (primary mouse MSCs) did it give?
Answer: equally abrogated

Question: For `CC(C)Cc1ccc(C(C)C(=O)O)cc1` (stereo not drawn) [ibuprofen], which onset of metastasis (4T1-Luc tumors; biopsied 4T1-Luc mice, daily oral 50 mg/kg for 9 days) is on record?
Answer: delayed onset

Question: What about the metastasis incidence (4T1-Luc tumors; biopsied 4T1-Luc mice, daily oral 50 mg/kg for 9 days, monitored 3 months, biopsied without drug 6/10) of the same molecule?
Answer: 2/10

Question: What about the “cellularity and COX2 expression in the biopsy wound” value (4T1-Luc tumors; histopathology of mastectomized tumors, versus untreated biopsied) of the same molecule?
Answer: far less

Question: And the “effect on metastasis in mice that did not receive biopsy” value (4T1-Luc tumors; unbiopsied 4T1-Luc mice, daily oral 50 mg/kg)?
Answer: no significant effect

Question: What about the “PEG2 level in biopsied mouse tumors” value [3] of the same molecule?
Answer: significantly reduced

Question: What about the “biopsy-WF induced PGE2 release” value (primary mouse MSCs) of the same molecule?
Answer: equally abrogated

Question: For `CCCCC[C@H](O)/C=C/[C@H]1[C@H](O)CC(=O)[C@@H]1C/C=C\CCCC(=O)O` [PGE2, prostaglandin E2], which “pulmonary metastasis of py230 BC cells” value (py230 BC cells) is on record?
Answer: enhanced pulmonary metastasis

Question: And the “infiltration of GFP+ MSCs” value (lung)?
Answer: preferential infiltration to perivascular space

Question: What about the VCAM1 vascular expression [4] of the same molecule?
Answer: elevated

Question: What about the “VCAM1 mRNA expression” value [5] of the same molecule?
Answer: induce

Question: And the “M1 marker mRNAs (iNOS and TNFα)” value [6]?
Answer: decrease

Question: What about the “M2 marker mRNA expression (arginase, YM1, YM2)” value [6] of the same molecule?
Answer: increase

Question: And the “VCAM1 mRNA expression” value [7]?
Answer: induce

Question: And the “shear resistant adhesion of human MSCs” value (HMVECs)?
Answer: 2 fold

Question: What about the “vessel permeability (Evans Blue leakage into the lungs)” value (pulmonary vessels) of the same molecule?
Answer: increased vessel permeability
